This is an account of results in US8067599B2 (Hoffman-La Roche Inc., priority 2006, dated 2011).

The target of assay [1] is T1, fusion protein corresponding to mouse Abl (27-end) (Mus musculus, UniProt P00520).
T1 construct: fusion protein corresponding to mouse Abl (27-end)
Nature of the assay: IC50 determination for inhibitors of Abl kinase (IMAP fluorescence polarization). The assay is classed as biochemical. The note with it: 22.8 uM ATP, 37° C., 60 minutes; read-out: IC50 Abl kinase inhibition. The method, then:
Abl assay was done using fusion protein corresponding to mouse Abl (27-end), fluorescein labeled peptide substrate (with a sequence of EAIYAAPFAKKK) and quantified by Molecular Devices' IMAP fluorescence polarization technology. Compounds were tested in serially diluted concentrations in 384 well plates. Kinase reaction was performed in KAB Buffer (10 mM HEPES, pH 7, 50 mM NaCl, 5 mM MgCl2, 1 mM DTT, 0.1 mM NaVO4, 0.02% BSA), in the presence of 22.8 uM ATP, incubated at 37° C. for 60 minutes. Reaction was stopped by IMAP bead mix (at 1:400 diluted). After incubation at room temperature for 3 hours, the reaction product was analyzed on LJL Acquest (excitation 485 nm and Emission 530 nm).
FP reading (in mP) was used to calculate reaction rate. The assay was semi automated by Tomtec Quadra workstation.

Assay [2] concerns the target T2, mouse full-length Src protein (Mus musculus, UniProt P05480).
T2 construct: mouse full-length Src protein
Nature of the assay: IC50 determination for inhibitors of Src kinase (IMAP fluorescence polarization). The assay is classed as biochemical. The settings on record: 24 uM ATP, 37° C., 60 minutes; read-out: IC50 Src kinase inhibition. The method, then: Src assay was done using mouse full-length Src protein, fluorescein labeled peptide substrate (with a sequence of KVEKIGEGTYGVVYK) and quantified by Molecular Devices' IMAP fluorescence polarization technology. Compounds were tested in serially diluted concentrations in 384 well plates. Kinase reaction was performed in KAB Buffer (10 mM HEPES, pH 7, 50 mM NaCl, 5 mM MgCl2, 1 mM DTT, 0.1 mM NaVO4, 0.02% BSA), in the presence of 24 uM ATP, incubated at 37° C. for 60 minutes. Reaction was stopped by IMAP bead mix (at 1:400 dilution). After incubation at room temperature for 2 hours, the reaction product was analyzed on LJL Acquest (excitation 485 nm and Emission 530 nm).
(§1) FP reading (in mP) was used to calculate reaction rate. The assay was semi-automated by Tomtec Quadra workstation.
On the technique in general: In fluorescence polarisation assays a small probe gives low polarisation when free and higher when bound to something large.

Assay [3] deals with HCT 116 cells. Nature of the assay: CellTiter-Glo assay in HCT 116 cells (antiproliferative activity). The settings on record: Homo sapiens, HCT-116, 120 h, cell viability after 5 days. The class given is cell-based. The method, then: The CellTiter-Glo™ Luminescent Cell Viability Assay (Promega) is a homogeneous method of determining the number of viable cells in culture based on quantitation of the ATP present, which signals the presence of metabolically active cells.
HCT 116 cells (human colon carcinoma, ATCC-No. CCl-247) were cultivated in RPMI 1640 medium with GlutaMAX™ 1 (Invitrogen, Cat-No. 61870-010), 5% Fetal Calf Serum (FCS, Sigma Cat-No. F4135 (FBS)); 100 Units/ml penicillin/100 μg/ml streptomycin (=Pen/Strep from Invitrogen Cat. No. 15140). For the assay the cells were seeded in 384 well plates, 1000 cells per well, in the same medium. The next day the test compounds were added in various concentrations ranging from 30 μM to 0.0015 μM (10 concentrations, 1:3 diluted). After 5 days the CellTiter-Glo™ assay was done according to the instructions of the manufacturer (CellTiter-Glo™ Luminescent Cell Viability Assay, from Promega). In brief: the cell-plate was equilibrated to room temperature for approximately 30 minutes and than the CellTiter-Glo™ reagent was added. The contents were carefully mixed for 15 minutes to induce cell lysis. After 45 minutes the luminescent signal was measured in Victor 2, (scanning multiwell spectrophotometer, Wallac).
• Medium: RPMI 1640 with GlutaMAX™ 1 (Invitrogen, Cat-No. 61870), 5% FCS (Sigma Cat.-No. F4135), Pen/Strep (Invitrogen, Cat No. 15140). • HCT116 (ATCC-No. CCl-247): 1000 cells in 60 μl per well of 384 well plate (Greiner 781098, μClear-plate white) • After seeding incubate plates 24 h at 37° C., 5% CO2 2nd. Day: Induction (Treatment with Compounds, 10 Concentrations):
In order to achieve a final concentration of 30 μM as highest concentration 3.5 μl of 10 mM compound stock solution were added directly to 163 μl media. Then step e) of the dilution procedure described below, was followed.

The target of assay [4] is human recombinant PDGFR beta (Homo sapiens, UniProt P09619). Nature of the assay: IC50 determination for inhibitors of PDGFR kinase (IMAP fluorescence polarization). The assay is classed as biochemical. The note with it: 48 uM ATP, room temperature, 60 minutes, read-out: IC50 PDGFR kinase inhibition. The method, then: PDGFR assay was carried out with human recombinant PDGFR beta, fluorescein labeled peptide substrate (with a peptide sequence of ALTSNQEYLDLSMPL) and test compounds (in serial dilution) using 384-well plates. Kinase reaction was performed in MOPS buffer (20 mM MOPS pH 7.1, 5 mM Sodium Acetate, 6.25 mM MgCl2, 0.5 mM EDTA, 1 mM DTT, 0.04 mM NaVO4, 0.02% BSA), in the presence of 48 uM ATP, incubated at room temperature for 60 minutes. Reaction was stopped by IMAP Bead Binding System (Molecular Devices). After incubation at room temperature for 2 hours, the reaction product was analyzed on LJL Acquest.
Chain of human recombinant PDGFR beta (P09619 33-1106): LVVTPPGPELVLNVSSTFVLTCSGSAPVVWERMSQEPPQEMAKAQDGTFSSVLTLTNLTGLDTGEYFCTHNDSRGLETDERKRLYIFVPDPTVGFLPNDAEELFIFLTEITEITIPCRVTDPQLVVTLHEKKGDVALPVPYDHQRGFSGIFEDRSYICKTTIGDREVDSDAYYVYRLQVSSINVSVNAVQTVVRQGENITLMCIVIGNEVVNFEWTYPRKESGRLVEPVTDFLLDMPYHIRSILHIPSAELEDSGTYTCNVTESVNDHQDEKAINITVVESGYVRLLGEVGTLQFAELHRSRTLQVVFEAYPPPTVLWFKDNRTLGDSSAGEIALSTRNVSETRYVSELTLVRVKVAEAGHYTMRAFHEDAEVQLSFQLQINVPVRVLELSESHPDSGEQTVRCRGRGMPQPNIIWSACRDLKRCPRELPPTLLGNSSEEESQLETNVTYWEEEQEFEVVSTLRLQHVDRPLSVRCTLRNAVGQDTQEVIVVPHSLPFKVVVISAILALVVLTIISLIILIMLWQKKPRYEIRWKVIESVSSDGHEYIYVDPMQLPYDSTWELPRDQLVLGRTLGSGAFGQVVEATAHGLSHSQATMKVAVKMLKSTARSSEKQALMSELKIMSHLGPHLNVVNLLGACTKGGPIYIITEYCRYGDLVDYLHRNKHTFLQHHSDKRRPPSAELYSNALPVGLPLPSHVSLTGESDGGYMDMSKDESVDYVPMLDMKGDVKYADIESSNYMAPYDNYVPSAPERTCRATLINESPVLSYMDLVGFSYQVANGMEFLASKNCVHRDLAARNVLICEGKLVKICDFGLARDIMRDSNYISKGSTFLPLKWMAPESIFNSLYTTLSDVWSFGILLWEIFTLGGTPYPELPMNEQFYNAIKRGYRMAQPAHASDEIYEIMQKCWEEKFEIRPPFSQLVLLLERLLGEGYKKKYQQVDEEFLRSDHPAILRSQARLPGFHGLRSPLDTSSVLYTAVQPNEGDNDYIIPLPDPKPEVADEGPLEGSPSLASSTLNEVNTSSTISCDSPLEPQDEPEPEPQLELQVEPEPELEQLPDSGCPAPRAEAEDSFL
as §1

Structures can show the parent of a compound that is named as a salt.

T2 sequence (P05480 whole entry): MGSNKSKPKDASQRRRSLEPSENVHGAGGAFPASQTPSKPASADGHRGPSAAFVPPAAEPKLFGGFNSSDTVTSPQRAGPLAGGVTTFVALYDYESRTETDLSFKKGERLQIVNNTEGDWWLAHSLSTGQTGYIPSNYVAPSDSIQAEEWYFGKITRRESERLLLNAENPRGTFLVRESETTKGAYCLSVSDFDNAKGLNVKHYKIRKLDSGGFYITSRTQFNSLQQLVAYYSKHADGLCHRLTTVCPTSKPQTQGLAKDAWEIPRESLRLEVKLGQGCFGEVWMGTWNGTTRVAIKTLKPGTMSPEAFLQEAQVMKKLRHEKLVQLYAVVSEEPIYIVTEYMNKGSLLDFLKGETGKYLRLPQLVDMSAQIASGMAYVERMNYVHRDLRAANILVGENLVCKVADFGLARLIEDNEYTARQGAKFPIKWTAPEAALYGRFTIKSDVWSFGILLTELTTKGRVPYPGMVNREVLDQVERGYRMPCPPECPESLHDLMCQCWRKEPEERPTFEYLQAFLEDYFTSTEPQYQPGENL
T1 sequence (P00520 27-1123 limits assumed): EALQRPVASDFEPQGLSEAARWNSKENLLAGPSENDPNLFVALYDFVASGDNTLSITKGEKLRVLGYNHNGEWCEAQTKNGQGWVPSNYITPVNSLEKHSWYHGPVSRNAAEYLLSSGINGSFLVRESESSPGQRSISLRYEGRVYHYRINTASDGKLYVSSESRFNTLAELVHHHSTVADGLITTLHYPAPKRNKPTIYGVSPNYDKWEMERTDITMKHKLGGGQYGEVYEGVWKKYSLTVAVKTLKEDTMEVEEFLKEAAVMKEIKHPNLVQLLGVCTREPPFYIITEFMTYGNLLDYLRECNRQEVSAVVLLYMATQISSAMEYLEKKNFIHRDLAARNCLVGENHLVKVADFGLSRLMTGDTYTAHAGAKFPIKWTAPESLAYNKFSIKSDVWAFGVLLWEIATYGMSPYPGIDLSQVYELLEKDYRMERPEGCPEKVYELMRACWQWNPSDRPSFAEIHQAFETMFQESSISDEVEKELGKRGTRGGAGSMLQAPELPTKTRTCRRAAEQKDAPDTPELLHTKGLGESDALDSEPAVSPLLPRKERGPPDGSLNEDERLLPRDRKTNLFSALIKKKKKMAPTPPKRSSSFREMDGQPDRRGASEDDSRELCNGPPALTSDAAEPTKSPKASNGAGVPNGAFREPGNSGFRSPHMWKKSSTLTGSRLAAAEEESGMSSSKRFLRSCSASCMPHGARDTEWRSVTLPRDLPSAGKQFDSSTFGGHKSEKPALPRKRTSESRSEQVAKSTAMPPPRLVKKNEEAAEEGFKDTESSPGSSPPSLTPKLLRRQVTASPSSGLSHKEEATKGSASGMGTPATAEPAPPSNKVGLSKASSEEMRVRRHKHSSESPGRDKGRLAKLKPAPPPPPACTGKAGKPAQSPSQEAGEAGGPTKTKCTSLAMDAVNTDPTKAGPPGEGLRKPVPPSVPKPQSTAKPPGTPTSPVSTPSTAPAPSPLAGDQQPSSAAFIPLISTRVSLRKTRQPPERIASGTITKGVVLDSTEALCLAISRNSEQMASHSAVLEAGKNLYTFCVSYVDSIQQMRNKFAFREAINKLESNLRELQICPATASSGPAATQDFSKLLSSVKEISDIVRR

Usually IC50 stands for the concentration at which inhibition is half-maximal. `Cc1c(C(=O)Nc2ccc(Cl)c(C(=O)Nc3cnc4[nH]ccc4c3)c2)cnn1-c1ccccc1` [Example 4-2, 5-Methyl-1-phenyl-1H-pyrazole-4-carboxylic acid [4-chloro-3-(1H-pyrrolo[2,3-b]pyridin-5-ylcarbamoyl)-phenyl]-amide]: the IC50 in assay [1] and in assay [2] was 5 to 1000 nM in each case. In turn, `O=C(Nc1ccc(Oc2ccccc2)nc1)c1ccc(Cl)c(C(=O)Nc2cnc3[nH]ccc3c2)c1` [Example 8-1, 4-Chloro-N^1-(6-phenoxy-pyridin-3-yl)-N^3-(1H-pyrrolo[2,3-b]pyridin-5-yl)-isophthalamide hydrochloride] displayed an IC50 in assay [3] of 100 to 10000 nM. Take `O=C(Nc1cccc(-n2cccn2)c1)c1ccc(Cl)c(C(=O)Nc2cnc3[nH]ccc3c2)c1` [Example 8-5, 4-Chloro-N^1-(3-pyrazol-1-yl-phenyl)-N^3-(1H-pyrrolo[2,3-b]pyridin-5-yl)-isophthalamide hydrochloride]: in assay [3], the IC50 lay within 100 to 10000 nM.

For the compound `O=C(Nc1ccc(Cl)c(C(=O)Nc2cnc3[nH]ccc3c2)c1)c1ccc(N2CCOCC2)cc1` [Example 2-3, 2-Chloro-5-(4-morpholin-4-yl-benzoylamino)-N-(1H-pyrrolo[2,3-b]pyridin-5-yl)-benzamide], the IC50 was 100 to 10000 nM in assay [3], 5 to 1000 nM in assay [1], 10 to 1000 nM in assay [4] and 189 nM in assay [2]. Regarding `Cc1n[nH]c(C)c1-c1ccccc1C(=O)Nc1ccc(Cl)c(C(=O)Nc2cnc3[nH]ccc3c2)c1` [Example 3-1], the IC50 in assay [2] was in the range of 5 to 1000 nM.

In turn, `CN1C(=O)CSc2cc(NC(=O)c3ccc(Cl)c(C(=O)Nc4cnc5[nH]ccc5c4)c3)ccc21` [Example 8-8, 4-Chloro-N^1-(4-methyl-3-oxo-3,4-dihydro-2H-benzo[1,4]thiazin-7-yl)-N^3-(1H-pyrrolo[2,3-b]pyridin-5-yl)-isophthalamide hydrochloride] returned an IC50 in assay [3] of 100 to 10000 nM.

Compound `CC(C)(C#N)c1cccc(NC(=O)c2ccc(Cl)c(C(=O)Nc3cnc4[nH]ccc4c3)c2)c1` [Example 8-7, 4-Chloro-N^1-[3-(cyano-dimethyl-methyl)-phenyl]-N^3-(1H-pyrrolo[2,3-b]pyridin-5-yl)-isophthalamide hydrochloride] came in with an IC50 in assay [3] of 100 to 10000 nM. For the compound `O=C(Nc1ccc(Cl)c(C(=O)Nc2cnc3[nH]ccc3c2)c1)c1cccc(N2CCOCC2)c1` [Example 4-3, 2-Chloro-5-(3-morpholin-4-yl-benzoylamino)-N-(1H-pyrrolo[2,3-b]pyridin-5-yl)-benzamide], the IC50 in assay [3] was 100 to 10000 nM; in assay [1], 5 to 1000 nM; in assay [2] it was 5 to 1000 nM. The compound `O=C(N[C@H]1C[C@@H]1c1ccccc1)c1ccc(Cl)c(C(=O)Nc2cnc3[nH]ccc3c2)c1` [Example 8-3, 4-Chloro-N^1-((1S,2R)-2-phenyl-cyclopropyl)-N^3-(1H-pyrrolo[2,3-b]pyridin-5-yl)-isophthalamide hydrochloride] gave an IC50 in assay [3] of 100 to 10000 nM. As to `COc1ccccc1/C=C/C(=O)Nc1ccc(Cl)c(C(=O)Nc2cnc3[nH]ccc3c2)c1` [Example 4-4, 2-Chloro-5-[(E)-3-(2-methoxy-phenyl)-acryloylamino]-N-(1H-pyrrolo[2,3-b]pyridin-5-yl)-benzamide], in assay [3], the IC50 is 100 to 10000 nM. In the case of `Cc1ccc(NC(=O)c2cccc(-c3ccccc3)c2)cc1C(=O)Nc1cnc2[nH]cnc2c1` [Example 6-2, Biphenyl-3-carboxylic acid [3-(3H-imidazo[4,5-b]pyridin-6-ylcarbamoyl)-4-methyl-phenyl]-amide], the IC50 in assay [4] was 1120 nM; in assay [2], 5 to 1000 nM. With `O=C(Nc1ccc(N2CCOCC2)cc1)c1ccc(Cl)c(C(=O)Nc2cnc3[nH]ccc3c2)c1` [Example 7-1, 4-Chloro-N^1-(4-morpholin-4-yl-phenyl)-N^3-(1H-pyrrolo[2,3-b]pyridin-5-yl)-isophthalamide], the IC50 in assay [1] was 831 nM; in assay [4], 10 to 1000 nM; in assay [2], 5 to 1000 nM. For `Cc1ccc(NC(=O)c2ccccc2)cc1C(=O)Nc1cnc2[nH]cnc2c1` [Example 6-1, 5-benzoylamino-N-(3H-imidazo[4,5-b]pyridin-6-yl)-2-methyl-benzamide], the IC50 in assay [1] is 5 to 1000 nM; in assay [2] it was 10 nM.

For `Cc1ccc(NC(=O)c2ccc(-c3ccccc3)cc2)cc1C(=O)Nc1cnc2[nH]cnc2c1` [Example 6-3, Biphenyl-4-carboxylic acid [3-(3H-imidazo[4,5-b]pyridin-6-ylcarbamoyl)-4-methyl-phenyl]-amide], the IC50 in assay [2] lay within 5 to 1000 nM. Turning to `COc1ccc([C@H]2C[C@@H]2C(=O)Nc2ccc(Cl)c(C(=O)Nc3cnc4[nH]ccc4c3)c2)cc1` [Example 4-7, 2-Chloro-5-{[(1S,2S)-2-(4-methoxy-phenyl)-cyclopropanecarbonyl]-amino}-N-(1H-pyrrolo[2,3-b]pyridin-5-yl)-benzamide], in assay [3], the IC50 lay in the range of 100 to 10000 nM. With `CC(C)(C)Oc1ccc(C(=O)Nc2ccc(Cl)c(C(=O)Nc3cnc4[nH]ccc4c3)c2)cc1` [Example 4-5, 5-(4-tert-Butoxy-benzoylamino)-2-chloro-N-(1H-pyrrolo[2,3-b]pyridin-5-yl)-benzamide], the results for the concentration for half-maximal inhibition (IC50) in assay [3], in assay [1] and in assay [2] were 380 nM, 5 to 1000 nM and 5 to 1000 nM, respectively.

With `O=C(Nc1nc2c(c(C(F)(F)F)n1)CCCC2)c1ccc(Cl)c(C(=O)Nc2cnc3[nH]ccc3c2)c1` [Example 8-2, 4-Chloro-N^3-(1H-pyrrolo[2,3-b]pyridin-5-yl)-N^1-(4-trifluoromethyl-5,6,7,8-tetrahydro-quinazolin-2-yl)-isophthalamide hydrochloride], the IC50 in assay [3] lay in the range of 100 to 10000 nM. On the same count and under the same terms, under `CC(Sc1cccc(-c2ccc(C(=O)Nc3ccc(Cl)c(C(=O)Nc4cnc5[nH]ccc5c4)c3)cc2)c1)C(N)=O` (stereo not shown) [Example 1-2, 3′-(1-Carbamoyl-ethylsulfanyl)-biphenyl 4 carboxylic acid [4-chloro 3 (1H-pyrrolo[2,3-b]pyridin-5-ylcarbamoyl)-phenyl]-amide] stands 100 to 10000 nM. As to `O=C(Nc1ccc(Cl)c(C(=O)Nc2cnc3[nH]ccc3c2)c1)c1cc(-c2ccccc2Cl)no1` [Example 4-1, 3-(2-Chloro-phenyl)-isoxazole-5-carboxylic acid[4-chloro-3-(1H-pyrrolo[2,3-b]pyridin-5-ylcarbamoyl)-phenyl]-amide], the IC50 was in the range of 100 to 10000 nM in assay [3] and 5 to 1000 nM in assay [1]. The corresponding values for `CC(C)(C#N)c1cccc(C(=O)Nc2ccc(Cl)c(C(=O)Nc3cnc4[nH]ccc4c3)c2)c1` [Example 4-6, 2-Chloro-5-[3-(cyano-dimethyl-methyl)-benzoylamino]-N-(1H-pyrrolo[2,3-b]pyridin-5-yl)-benzamide] are 100 to 10000 nM and 5 to 1000 nM.
